Results: a melting point compilation (Tetko et al.)

SMILES | melting point [°C]
Cc1cc(C)c(O)c([N+](=O)[O-])c1 | 70
CCCCCC(=NO)C(C)=O | 59
CC12CCC(C=C/C1=N\O)C2(C)C (configuration not stated) | 145 to 146
CNN=C(N)C(S)=NNC | 185
N#CSc1ccc(N)c(C(=O)O)c1 | 165 to 168
O=C(c1ccc(Br)cc1)[C@H]1CCCC[C@H]1C(=O)O (relative stereo) | 171 to 175
CNc1ccc2oc(CC3OC4(CCC3C)OC(C(C)C(=O)c3ccc[nH]3)C(C)CC4C)nc2c1C(=O)O (configuration not stated) | 182
CC(CC(C)(C)C)CC(C)(C)C | -67
CN(C)C=C(C=O)c1ccccc1[N+](=O)[O-] | 119 to 120
CC#Cc1cc(C)nc(Nc2ccccc2)n1 | 133
CCCC(O)C(O)(CC)C1CCCCC1 (configuration not stated) | 78
O=C(O)C12CC3CC(CC(O)(C3)C1)C2 | 205
COC(=O)C1CC2(C(=O)OC)C=CC1C2 (configuration not stated) | 38
C#CCCC#C | -6
NCCCCCN | 9
CN(Cc1cc(Br)cc(Br)c1N)C1CCCCC1 | 238
CC(=O)OC1CCC2(C)C(CCC3C4CCC(=NNS(=O)(=O)c5ccc(C)cc5)C4(C)CCC32)C1 (configuration not stated) | 222
O=C(O)C(F)(F)C(F)(F)C(F)(F)C(F)(F)C(F)(F)C(F)(F)C(F)(F)C(F)(F)C(=O)O | 154 to 160
CCCC[N+](=O)[O-] | -81.3
O=[N+]([O-])C=Cc1c(F)cccc1Cl | 63

SMILES | melting point [°C]
CCC(C)CC(C)(C)C (configuration not stated) | -120
CC(=O)Oc1ccccc1C(=O)OCC(=O)N(C(C)C)C(C)C | 108
O=C(O)CCCc1ccc2c(c1)OCCO2 | 76 to 78
CC1(C)C(Br)=C(Br)C(=O)C1Br (configuration not stated) | 87
CC(C)(C)OC(=O)Nc1ccco1 | 98 to 100
CCCCCCCCCCCCC1=C(OC(C)=O)C(=O)c2ccccc2C1=O | 59.6
CC(C)=NN=C(C)C | -12.5
CC(C)(C)c1cc(S)cc(C(C)(C)C)c1O | 76
O=C(O)C(Cl)(Cl)CCl | 65.5
CC(=O)N1CCCCC1 | -13.4
O=c1oc(=O)c2cc3c(=O)oc(=O)c3cc12 | 283 to 287
CCOC(=O)C(C(=O)OCC)C(C(=O)OCC)C(=O)OCC | 77
CNc1ncnc(Cl)c1[N+](=O)[O-] | 134 to 139
OCCN1CCNC1=S | 136 to 138
CN(C)C(C)(C)C | -90
O=C(O)C1(O)c2ccccc2-c2ccc(Cl)cc21 (configuration not stated) | 152
CC(C)(Cl)CCC(C)(C)Cl | 67.5
CCCCCCCOC(=O)CCCCCC | -33
COC(=O)C=C(C)OP(=O)(OC)OC | 21
O=[N+]([O-])c1cc(Br)cc2c1NCC2 | 131

SMILES | melting point [°C]
CC1=C[C@@]2(C)O[C@@H](c3ccccc3)[C@@H]1C(C#N)(C#N)C2(C#N)C#N | 170 to 171
CC(C)(O)C(N)C(=O)O (racemic) | 200 to 202
CC(NC(=O)CCCCNC(=O)C12CC3CC(CC(C3)C1)C2)C(=O)NC(CCC(=O)O)C(N)=O (configuration not stated) | 200
CC12CCC(O)CC1CCC1C2C(O)CC2(C)C(C3=CC(=O)OC3)CCC12O (configuration not stated) | 280
CCOC(=O)C(O)(c1ccc(N)c(OC)c1)C(F)(F)F (configuration not stated) | 97 to 99
CCOC(=O)C1N=C(c2ccccc2F)c2cc(Cl)ccc2NC1=O (configuration not stated) | 194
CC(C)(c1ccc(OCC2CO2)cc1)c1ccc(OCC2CO2)cc1 (configuration not stated) | 10
CC(C)NC(=O)C(C(F)(F)F)C(F)(F)F | 136
O=C1C=CC(=O)C(Cl)=C1 | 52 to 57
COC(=O)c1c(OC)c(OC)c(OC)c(C(=O)OC)c1C(=O)OC | 84 to 85
CC(C)CCCC(C)C1CCC2(C)C1(C)CCC13OC21CCC1C(C)C(O)CCC13C (configuration not stated) | 161 to 163
NCCOCCO | -11
CC(=O)CO | -17
CCCCCCCCOCCCCCCCC | -7.6
CN(C)C(CSS(=O)(=O)c1ccccc1)CSS(=O)(=O)c1ccccc1 | 83.5
N#CC1(O)C(C2COC3(CCCCC3)O2)OC2OC3(CCCCC3)OC21 (configuration not stated) | 107 to 113
O=C(Nc1ccccc1)C(Cl)(Cl)Cl | 96
Cc1c(C)c(O)c(C)c(C)c1O | 233
CC1(c2ccccc2)CCOCO1 (configuration not stated) | 37.5
COc1cc2c(c(Oc3c(OC)cc4c(c3O)C(CC(C)C)N(C)CC4)c1O)C(CC(C)C)N(C)CC2 (configuration not stated) | 164

Next, values leading:

melting point [°C] | SMILES
281 | CC(=O)Nc1ccc(C#Cc2ccc(NC(C)=O)cc2)cc1
232 to 234 | N#CC1=C(C#N)C(=O)C(NCc2ccccc2)=C(Cl)C1=O
75 | c1ccn2cccc2c1
159 | CCSc1nnc(NC(=O)C(C(F)(F)F)C(F)(F)F)s1
87 to 90 | CCOC(=O)c1cnc2c(c(C)nn2C)c1Cl
112 to 114 | COc1ccc(OCC(=O)O)cc1
171 | COc1ccc(/C=N/c2nc(C(F)(F)F)n[nH]2)cc1
49 | COC(=O)c1cc2ccccc2cc1C(=O)OC
57 to 59 | Nc1ccc(C2SCCS2)cc1
41.5 to 43.5 | NCc1ccc(OC2CCOCC2)cc1
90 to 92 | CCOC(=O)C(=O)Nc1cc(C(F)(F)F)cc(C(F)(F)F)c1
159 | O=c1[nH]c2ccccc2nc(C(F)(F)F)c1=NNc1cc(-c2ccccc2)n[nH]1
54 to 56 | O=Cc1cccc(Cn2cncn2)c1
116 to 118 | O=S(=O)(c1ccc(Cl)cc1)n1cccc1
123 to 124 | CCOC(=O)C(C#N)=Cc1ccc(-c2ccc(C)cc2)o1
33 to 36 | CNc1ccc(OC)cc1
177 to 178 | O=C(O)C=Cc1ccc(Sc2ccccn2)c([N+](=O)[O-])c1
168 | Cc1ccc(C2CC(c3ccc4ccccc4c3)=NN2c2ccccc2)cc1 (configuration not stated)
121 | Cc1cccc2c(=O)c(=O)c12
108 | CC(=O)Oc1nc(C2CCCCC2)nn1-c1ccccc1
97 | Cc1ccc(C#N)c([N+](=O)[O-])c1
72.3 | O=C(/C=C/c1ccc(Cl)cc1Cl)c1ccccc1
149 | COc1cc(OC)c2c(=O)c(=O)c2c1

melting point [°C] | SMILES
170 | O=C(OCC(O)CO)c1ccccc1Nc1ccnc2cc(Cl)ccc12 (configuration not stated)
151 to 158 | O=C(c1ccccn1)C(O)c1ccccn1 (configuration not stated)
104 to 108 | O=C(O)c1cc(F)cc(C(F)(F)F)c1
240 | O=C(Nc1ccccc1)c1nn(-c2ccccc2)c(-c2ccc([N+](=O)[O-])cc2)c1S(=O)(=O)c1ccccc1
228 | CC=C(C(=CC)c1ccc(O)cc1)c1ccc(O)cc1
73 | COc1cccc(Nc2ccccc2)c1
115 | COc1ccc2cc(C(O)C(C)O)ccc2c1 (configuration not stated)
235 | CN1COCc2c1ccc1cc3ccc(N)c(CO)c3nc21
208 | Cc1ccc(C=NC2=NC(C(F)(F)F)N=N2)cc1 (configuration not stated)
73 to 74 | Cc1ccc2cc(F)ccc2c1
112 to 113 | Cc1sc2ncnc(Cl)c2c1C
144 to 147 | O=C(NC(=S)Nc1ccccn1)c1ccccc1
177 to 181 | NC(=S)Nc1ccc(Cl)cc1
147 to 154 | O=C1C(=Cc2ccc(F)cc2)CCCC1=Cc1ccc(F)cc1
178 to 180 | COc1ccc(-n2c(S)nnc2-c2ccc(OC(F)(F)F)cc2)cc1
204 | O=C(/C(=N/O)c1ccccc1)c1ccc2c3c(cccc13)CC2
298 to 300 | CC(C)(C)OC(=O)N1CCN(c2ccc(C(=O)O)cn2)CC1
201 to 203 | COc1ccc(/N=N/c2c(N)nn3c(C)cc(C)nc23)cc1
102 to 103 | N=c1sc(C(=O)c2cccs2)nn1-c1[nH]nc(-c2ccccc2)c1Br
211 to 215 | Nc1ccc(C(=O)O)cc1O
23 | Cc1ccc(I)cc1F
58 to 60 | COC(=O)c1scc(C)c1N=C=S
90 to 91 | COc1ccccc1N1CCN(CC(C)N(C(=O)C2CCCCC2)c2ccccn2)CC1 (configuration not stated)

melting point [°C] | SMILES
199 to 201 | CC1(c2ccccc2)NC(=O)NC1=O (configuration not stated)
118 | COc1cccc(OCC(=O)O)c1
169 | CCCOC(=O)C1=C(C)NC(=S)NC1c1ccccc1 (configuration not stated)
52.7 | C=CCOC(Cn1ccnc1)c1ccc(Cl)cc1Cl (configuration not stated)
64.5 to 65.5 | CC(=O)Oc1ccc(OC(C)=O)c(C(C)(C)C)c1
133 | CC(=Cc1ccccc1)CC(N)=O
123 | CCCCCCCC(=O)c1ccc(NC(C)=O)cc1
190 | NS(=O)(=O)c1c(F)cccc1F
144 to 145 | O=Cc1nc2ccccc2c2ncccc12
4.7 | c1ccc(N2CCCCC2)cc1
88 to 89 | S=C=Nc1cccc2nsnc12
247 | Nc1ccc(N=Nc2ccc(N=Nc3ccc(N)cc3)cc2)cc1
342 | CCOC(=O)C1=C(C)N=c2cc3c(cc21)=C(C(=O)OCC)C(C)=N3
98 | Cc1ccccc1NC(=O)c1cncc(Cl)n1
8 | COc1ccc(CCC(C)=O)cc1
205 to 207 | Cc1ccc(Sc2ncccc2C(N)=O)cc1
200 | COC(=O)C(C#N)=Cc1cc(Br)c(O)c(OC)c1
142 to 143 | COC(=O)c1ccc(OCNC(=O)c2ccccc2)cc1
146 | C/C(CC(C)c1ccc(C)cc1)=N\NC(N)=O (configuration not stated)
213 to 214 | CN(C)c1ccc(C=C(C#N)c2ccc(Cl)c(Cl)c2)cc1
215 | [O-][P+](c1ccccc1)(c1ccccc1)C1C2=C(OC3=C1CCc1ccccc13)c1ccccc1CC2
